Paper PMC9820316, “Novel Arylpiperazine Derivatives of Salicylamide with α1-Adrenolytic Properties Showed Antiarrhythmic and Hypotensive Properties in Rats” (International Journal of Molecular Sciences, 2022)
Marks after values point to notes of the source that are not given here.

How the values were obtained:
[1] = tested on: adrenaline-induced arrhythmia model in rats; assay: Prophylactic antiarrhythmic activity in adrenaline-induced arrhythmia; type: in vivo, rat; details: for Blocks / Bradycardia / Extrasystoles / Mortality: number of animals with event
Experimental: (§1) The animals were anesthetized with thiopental (75 mg/kg ip). Depending on the model, either adrenaline, aconitine, or calcium chloride was used as an arrhythmogen. Adrenaline and aconitine were administered iv at a dose of 20 µg/kg, whereas calcium chloride was administered at a dose of 140 mg/kg to induce heart rhythm disturbances. The tested compounds were injected iv 15 min before the arrhythmogen. Aspel ASCARD apparatus (standard II lead, with the tape speed 50 mm/s and voltage calibration 1 mV = 1 cm) was used for ECG measurements. […] The ED50 was calculated using the method of Litchfield and Wilcoxon.

[2] = tested on: calcium chloride-induced arrhythmia model in rats; assay: Prophylactic antiarrhythmic activity in calcium chloride-induced arrhythmia; type: in vivo, rat; details: 5 mg/kg iv 15 min before calcium chloride 140 mg/kg; number of animals with event
Experimental: as §1

[3] = tested on: aconitine-induced arrhythmia model in rats; assay: Prophylactic antiarrhythmic activity in aconitine-induced arrhythmia; type: in vivo, rat; details: 5 mg/kg iv 15 min before aconitine 20 μg/kg; number of animals with event
Experimental: as §1

[4] = tested on: normal ECG in rats; assay: Effect on a normal electrocardiogram in rats; type: in vivo, rat; details: for HR—heart rate / PQ interval / QRS complex / QTc (Bazzett's formula) / decrease of the heart rate: 5 mg/kg iv; for HR—heart rate / PQ interval / QRS complex / QTc (Bazzett's formula): mean ± SD; for PQ interval / QRS complex / QTc (Bazzett's formula): in ms (unit assumed)
Experimental: The procedure was performed to exclude the negative effects of the tested compounds on the normal ECG, according to the method described earlier. […] Firstly, animals were anesthetized with thiopental (75 mg/kg ip). […] The influence on PQ, QTc interval, QRS complex, and heart rate was evaluated. The Bazzett’s formula: QTc = QT/√RR was used to calculate QTc. All the studied compounds were administered at a dose of 5 mg/kg.

[5] = tested on: normotensive rats; assay: Influence on blood pressure in the normotensive rats; type: in vivo, rat; details: for DBP—diastolic blood pressure / SBP—systolic blood pressure: mean ± SD
Experimental: The experiment was performed according to the method described earlier. Normotensive Wistar rats were anesthetized with thiopental (75 mg/kg ip). The right carotid artery was cannulated with a polyethylene tube filled with heparin solution, using a Datamax apparatus (Columbus Instruments, Columbus, OH, USA). After 15 min of the stabilization period, the studied compounds were administered iv, and their effect on systolic and diastolic blood pressure was evaluated (Figure 4A).

[6] = tested on: adrenaline-induced arrhythmia model in rats; assay: Therapeutic antiarrhythmic activity in adrenaline-induced arrhythmia; details: 1 mg/kg iv immediately after adrenaline 20 µg/kg; number of animals with event
[7] = 0.1 mg/kg iv 15 min before adrenaline 20 μg/kg
[8] = 0.25 mg/kg iv 15 min before adrenaline 20 μg/kg
[9] = 0.5 mg/kg iv 15 min before adrenaline 20 μg/kg
[10] = 0 min (prior to administration)
[11] = 1.0 mg/kg iv, 0 min (before administration)
[12] = 2.5 mg/kg iv, 0 min (before administration)

COc1ccccc1N1CCN(Cc2cccc(COc3ccccc3C(N)=O)c2)CC1.Cl [JJGW11, 2-[(3-{[4-(2-metoxyphenyl)piperazin-1-ylo]methyl}phenyl)metoxy}benzamide hydrochloride]
Blocks [1, 7]: 4/5
Bradycardia [1, 7]: 2/5
Extrasystoles [1, 7]: 4/5
Mortality [1, 7]: 1/5
Blocks [1, 8]: 6/6
Bradycardia [1, 8]: 0/6
Extrasystoles [1, 8]: 6/6
Mortality [1, 8]: 0/6
Blocks [1, 9]: 1/6
Bradycardia [1, 9]: 2/6
Extrasystoles [1, 9]: 3/6
Mortality [1, 9]: 1/6
ED50 ([1]; prophylactic, iv 15 min before adrenaline 20 μg/kg, confidence limits in brackets (Litchfield and Wilcoxon)): 0.19 (0.08–0.45) mg/kg
Blocks [2]: 6/6
Bradycardia [2]: 6/6
Extrasystoles [2]: 5/6
Fibrillations [2]: 6/6
Mortality [2]: 6/6
Blocks [3]: 6/6
Bradycardia [3]: 6/6
Extrasystoles [3]: 5/6
Fibrillations [3]: 4/6
Mortality [3]: 6/6
dose affecting the heart rate relative to the ED50 value in the adrenaline-induced arrhythmia model ([4]; 5 mg/kg iv vs ED50): 26 fold
HR—heart rate [4, 10]: 281.3 ± 50.8
PQ interval [4, 10]: 45.8 ± 7.2
QRS complex [4, 10]: 38.5 ± 3.6
QTc (Bazzett's formula) [4, 10]: 188.2 ± 12.3
decrease of the heart rate ([4]; 10th min after the injection): 8%
decrease of the heart rate ([4]; 15th min after the injection): 10%
HR—heart rate ([4]; 5 min): 266.5 ± 58.2
PQ interval ([4]; 5 min): 47.1 ± 5.7
QRS complex ([4]; 5 min): 41.3 ± 3.0
QTc (Bazzett's formula) ([4]; 5 min): 197.3 ± 18.6
HR—heart rate ([4]; 10 min): 258.8 ± 55.0
PQ interval ([4]; 10 min): 47.4 ± 5.0
QRS complex ([4]; 10 min): 42.4 ± 4.3
QTc (Bazzett's formula) ([4]; 10 min): 193.6 ± 22.0
HR—heart rate ([4]; 15 min): 252.4 ± 50.3
PQ interval ([4]; 15 min): 47.6 ± 5.1
QRS complex ([4]; 15 min): 41.7 ± 5.4
QTc (Bazzett's formula) ([4]; 15 min): 184.1 ± 16.9
DBP—diastolic blood pressure [5, 11]: 86.8 ± 7.6 mmHg
SBP—systolic blood pressure [5, 11]: 118.2 ± 9.7 mmHg
DBP—diastolic blood pressure ([5]; 1.0 mg/kg iv, 5 min): 81.3 ± 14.4 mmHg
SBP—systolic blood pressure ([5]; 1.0 mg/kg iv, 5 min): 116.2 ± 8.5 mmHg
DBP—diastolic blood pressure ([5]; 1.0 mg/kg iv, 10 min): 82.0 ± 10.2 mmHg
SBP—systolic blood pressure ([5]; 1.0 mg/kg iv, 10 min): 113.8 ± 9.2 mmHg
DBP—diastolic blood pressure ([5]; 1.0 mg/kg iv, 20 min): 82.3 ± 8.8 mmHg
SBP—systolic blood pressure ([5]; 1.0 mg/kg iv, 20 min): 111.5 ± 10.4 mmHg
DBP—diastolic blood pressure ([5]; 1.0 mg/kg iv, 30 min): 83.0 ± 8.2 mmHg
SBP—systolic blood pressure ([5]; 1.0 mg/kg iv, 30 min): 111.0 ± 10.8 mmHg
DBP—diastolic blood pressure ([5]; 1.0 mg/kg iv, 40 min): 82.5 ± 8.4 mmHg
SBP—systolic blood pressure ([5]; 1.0 mg/kg iv, 40 min): 110.0 ± 11.5 mmHg
DBP—diastolic blood pressure ([5]; 1.0 mg/kg iv, 50 min): 81.7 ± 8.3 mmHg
SBP—systolic blood pressure ([5]; 1.0 mg/kg iv, 50 min): 110.3 ± 10.7 mmHg
DBP—diastolic blood pressure ([5]; 1.0 mg/kg iv, 60 min): 81.5 ± 8.4 mmHg
SBP—systolic blood pressure ([5]; 1.0 mg/kg iv, 60 min): 110.8 ± 10.6 mmHg
DBP—diastolic blood pressure [5, 12]: 88.7 ± 10.4 mmHg
SBP—systolic blood pressure [5, 12]: 116.7 ± 8.1 mmHg
decrease of the diastolic blood pressure ([5]; 2.5 mg/kg iv, 60th min after administration): 18%
DBP—diastolic blood pressure ([5]; 2.5 mg/kg iv, 5 min): 84.7 ± 10.0 mmHg
SBP—systolic blood pressure ([5]; 2.5 mg/kg iv, 5 min): 108.5 ± 8.7 ^b mmHg
DBP—diastolic blood pressure ([5]; 2.5 mg/kg iv, 10 min): 81.2 ± 8.6 mmHg
SBP—systolic blood pressure ([5]; 2.5 mg/kg iv, 10 min): 103.3 ± 9.5^c mmHg
DBP—diastolic blood pressure ([5]; 2.5 mg/kg iv, 20 min): 78.5 ± 10.1 mmHg
SBP—systolic blood pressure ([5]; 2.5 mg/kg iv, 20 min): 102.3 ± 10.0 ^c mmHg
DBP—diastolic blood pressure ([5]; 2.5 mg/kg iv, 30 min): 77.3 ± 9.9 mmHg
SBP—systolic blood pressure ([5]; 2.5 mg/kg iv, 30 min): 101.3 ± 9.2 ^b mmHg
DBP—diastolic blood pressure ([5]; 2.5 mg/kg iv, 40 min): 79.2 ± 10.5 mmHg
SBP—systolic blood pressure ([5]; 2.5 mg/kg iv, 40 min): 103.0 ± 10.3 ^a mmHg
DBP—diastolic blood pressure ([5]; 2.5 mg/kg iv, 50 min): 77.7 ± 12.9 mmHg
SBP—systolic blood pressure ([5]; 2.5 mg/kg iv, 50 min): 103.5 ± 12.9 ^b mmHg
DBP—diastolic blood pressure ([5]; 2.5 mg/kg iv, 60 min): 73.0 ± 16.2 ^a mmHg
SBP—systolic blood pressure ([5]; 2.5 mg/kg iv, 60 min): 100.2 ± 15.9 ^b mmHg
decrease of the systolic blood pressure ([5]; 2.5 mg/kg iv, between the 5th and 60th min after injection): 7–14%
Blocks [6]: 2/5
Bradycardia [6]: 1/5
Mortality [6]: 0/5
